Experimental findings from patent US20110015371A1 (Vertex Pharmaceuticals Incorporated, priority 1994, published 2011) are described below.

One data set deals with T1, ICE (Homo sapiens, UniProt P29466).
T1 sequence (P29466 120-297 limits assumed): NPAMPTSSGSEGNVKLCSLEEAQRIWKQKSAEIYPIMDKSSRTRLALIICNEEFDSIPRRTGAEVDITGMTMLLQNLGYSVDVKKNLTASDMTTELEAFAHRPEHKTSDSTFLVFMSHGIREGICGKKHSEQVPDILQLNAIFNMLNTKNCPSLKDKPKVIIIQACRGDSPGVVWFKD
T1 sequence (P29466 317-404 limits assumed): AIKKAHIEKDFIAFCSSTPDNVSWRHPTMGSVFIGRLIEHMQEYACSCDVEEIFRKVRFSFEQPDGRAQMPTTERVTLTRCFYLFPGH
In words: Enzyme assay with UV-visible substrate (Succinyl-Tyr-Val-Ala-Asp-pNitroanilide). Type of data set: biochemical. The protocol:
1. Enzyme Assay with UV-Visible Substrate
This assay is run using an Succinyl-Tyr-Val-Ala-Asp-pNitroanilide substrate. Synthesis of analogous substrates is described by L. A. Reiter (Int. J. Peptide Protein Res. 43, 87-96 (1994)). The assay mixture contains:
The visible ICE assay is run in a 96-well microtiter plate. Buffer, ICE and DMSO (if inhibitor is present) are added to the wells in the order listed. The components are left to incubate at room temperature for 15 minutes starting at the time that all components are present in all wells. The microtiter plate reader is set to incubate at 37° C. After the 15 minute incubation, substrate is added directly to the wells and the reaction is monitored by following the release of the chromophore (pNA) at 405-603 nm at 37° C. for 20 minutes. A linear fit of the data is performed and the rate is calculated in mOD/min. DMSO is only present during experiments involving inhibitors, buffer is used to make up the volume to 100 μl in the other experiments.
For determination of enzyme inhibition constants (Ki) or the mode of inhibition (competitive, uncompetitive or noncompetitive), the rate data determined in the enzyme assays at varying inhibitor concentrations are computer-fit to standard enzyme kinetic equations (see I. H. Segel, Enzyme Kinetics, Wiley-Interscience, 1975).

In data set [1] the test system is Human Peripheral Blood Mononuclear Cells (PBMC) or Enriched Adherent Mononuclear Cells. Description: Cell assay: IL-1β assay with human PBMC or enriched adherent mononuclear cells. Type of data set: cell-based. The note with it: LPS-stimulated cells, mature IL-1β in supernatant by ELISA. The text has this: IL-1β Assay with a Mixed Population of Human Peripheral Blood Mononuclear Cells (PBMC) or Enriched Adherent Mononuclear Cells
Processing of pre-IL-1S by ICE can be measured in cell culture using a variety of cell sources. Human PBMC obtained from healthy donors provides a mixed population of lymphocyte subtypes and mononuclear cells that produce a spectrum of interleukins and cytokines in response to many classes of physiological stimulators. Adherent mononuclear cells from PBMC provides an enriched source of normal monocytes for selective studies of cytokine production by activated cells.
An initial dilution series of test compound in DMSO or ethanol is prepared, with a subsequent dilution into RPMI-10% FBS media (containing 2 mM L-glutamine, 10 mM HEPES, 50 U and 50 ug/ml pen/strep) respectively to yield drugs at 4× the final test concentration containing 0.4% DMSO or 0.4% ethanol. The final concentration of DMSO is 0.1% for all drug dilutions. A concentration titration which brackets the apparent Ki for a test compound determined in an ICE inhibition assay is generally used for the primary compound screen.
We generally test 5-6 compound dilutions and have performed the cellular component of the assay in duplicate, with duplicate ELISA determinations on each cell culture supernatant.
Buffy coat cells isolated from one pint human blood (yielding 40-45 ml final volume plasma plus cells) are diluted with media to 80 ml and LeukoPREP separation tubes (Becton Dickinson) are each overlaid with 10 ml of cell suspension. After 15 min centrifugation at 1500-1800×g, the plasma/media layer is aspirated and then the mononuclear cell layer is collected with a Pasteur pipette and transferred to a 15 ml conical centrifuge tube (Corning). Media is added to bring the volume to 15 ml, gently mix the cells by inversion and centrifuge at 300×g for 15 min. Resuspend the PBMC pellet in a small volume of media, count cells and adjust to 6×10^6 cells/ml.
For the cellular assay, add 1.0 ml of the cell suspension to each well of a 24-well flat bottom tissue culture plate (Corning), 0.5 ml test compound dilution and 0.5 ml LPS solution (Sigma #L-3012; 20 ng/ml solution prepared in complete RPMI media; final LPS concentration 5 ng/ml). The 0.5 ml additions of test compound and LPS are usually sufficient to mix the contents of the wells. Three control mixtures are run per experiment, with either LPS alone, solvent vehicle control, and/or additional media to adjust the final culture volume to 2.0 ml. The cell cultures are incubated for 16-18 hr at 37° C. in the presence of 5% CO2.
At the end of the incubation period, cells are harvested and transferred to 15 ml conical centrifuge tubes. After centrifugation for 10 min at 200×g, supernatants are harvested and transferred to 1.5 ml Eppendorf tubes. It may be noted that the cell pellet may be utilized for a biochemical evaluation of pre-IL-1S and/or mature IL-1β content in cytosol extracts by western blotting or ELISA with pre-IL-1β specific antisera.
PBMC are isolated and prepared as described above. Media (1.0 ml) is first added to wells followed by 0.5 ml of the PBMC suspension. After a one hour incubation, plates are gently shaken and nonadherent cells aspirated from each well. Wells are then gently washed three times with 1.0 ml of media and final resuspended in 1.0 ml media. The enrichment for adherent cells generally yields 2.5−3.0×10^5 cells per well. The addition of test compounds, LPS, cell incubation conditions and processing of supernatants proceeds as described above.
We have used Quantikine kits (R&D Systems) for measurement of mature IL-1β. Assays are performed according to the manufacturer's directions. Mature IL-1β levels of about 1-3 ng/ml in both PBMC and adherent mononuclear cell positive controls are observed. ELISA assays are performed on 1:5, 1:10 and 1:20 dilutions of supernatants from LPS-positive controls to select the optimal dilution for supernatants in the test panel.
For orientation: ELISA stands for enzyme-linked immunosorbent assay.

[2] abbreviates: Homo sapiens, PBMC, Example 6 table.

pIC50, pKi: −log10 of the molar value.

As to `C[C@H](NC(=O)c1ncc(CCc2ccccc2)[nH]1)C(=O)N[C@H](C=O)CC(=O)O` [Compound 20c, (3S)3-{N-[4-(2-Phenylethyl)imidazole-2-carbonyl]-L-alaninyl}amino-4-oxobutanoic acid], the melting point (commonly the temperature, or range, at which the solid turns liquid) is 102 to 104 °C.

In the case of `O=C[C@H](CC(=O)O)NC(=O)[C@@H]1CCCN1C(=O)c1nc(CCc2ccccc2)c[nH]1` [Compound 21c, (3S)3{N-[4-(2-Phenylethyl)imidazole-2-carbonyl]-L-prolinyl}amino-4-oxobutanoic acid], the melting point was 101 to 103 °C.

Turning to `COc1cccc2nc(C(=O)[C@H](CC(=O)O)NC(=O)Cn3c(Cc4ccccc4)ccc(NC(=O)CCc4ccccc4)c3=O)oc12` [Compound 127], at ICE (Example 6 table), the pKi – broadly, the negative decadic logarithm of the Ki, by convention in mol/L – was 6.41. For the same compound, the pIC50 (commonly the negative decadic logarithm of the IC50, by convention in mol/L) in data set [1] (setting [2]) was 5.10.

Compound `O=C(O)C[C@H](NC(=O)Cn1c(Cc2ccccc2)ccc(NC(=O)CCc2ccccc2)c1=O)C(=O)c1ncc(-c2c(Cl)cccc2Cl)o1` [Compound 128] gave a pKi on ICE (Example 6 table) of 7.40. In addition, the pIC50 in data set [1] (setting [2]) is 5.12.

`C[C@@H](C(=O)N[C@@H](CC(=O)O)C(=O)c1ncc(-c2c(Cl)cccc2Cl)o1)n1cccc(NC(=O)CCc2ccccc2)c1=O` [Compound 129] gave a pKi on ICE (Example 6 table) of 6.23. Further, the pIC50 in data set [1] (setting [2]) is 4.60.

In turn, `O=C[C@H](CC(=O)O)NC(=O)[C@@H]1CCCN2C(=O)C[C@H](NC(=O)CCc3ccccc3)C(=O)N12` [Compound 132a] had a pKi on ICE (Example 6 table) of 5.30. Besides, in data set [1] (setting [2]), the pIC50 is less than 4.52.

With `O=C[C@H](CC(=O)O)NC(=O)[C@@H]1CCCN2CC[C@H](NC(=O)CCc3ccccc3)C(=O)N12` [Compound 133], the pKi at ICE (Example 6 table) was 4.30. Also, the negative-log IC50 (pIC50) in data set [1] (setting [2]) is less than 4.52.

At ICE (Example 6 table), `COc1cccc2nc(C(=O)[C@H](CC(=O)O)NC(=O)[C@@H]3CCCN4C(=O)CC[C@H](NC(=O)CCc5ccccc5)C(=O)N34)oc12` [Compound 135a] gave a pKi of 7.05. In data set [1] (setting [2]), this compound had a pIC50 of 6.05.

On ICE (Example 6 table), `COc1cccc2oc(C(=O)[C@H](CC(=O)O)NC(=O)[C@@H]3CCCN4C(=O)CC[C@H](NC(=O)CCc5ccccc5)C(=O)N34)nc12` [Compound 135b] showed a pKi of 6.49. The pIC50 in data set [1] (setting [2]) is 6.02.

`O=C(O)C[C@H](NC(=O)[C@@H]1CCCN2C(=O)CC[C@H](NC(=O)CCc3ccccc3)C(=O)N12)C(=O)c1ncc(-c2c(Cl)cccc2Cl)o1` [Compound 137]: at ICE (Example 6 table), the pKi is 7.40. The same compound gave a pIC50 in data set [1] (setting [2]) of 6.60.

Compound `CS(=O)(=O)N[C@H]1CCC(=O)N2CCC[C@@H](C(=O)N[C@H](C=O)CC(=O)O)N2C1=O` [Compound 139] gave a pKi at ICE (Example 6 table) of 6.46. In data set [1] (setting [2]), this compound had a pIC50 of 5.70.

At ICE (Example 6 table), `O=C[C@H](CC(=O)O)NC(=O)[C@@H]1Cc2ccccc2[C@H]2CCC[C@H](NC(=O)CCc3ccccc3)C(=O)N21` [Compound 140] had a pKi of 6.06. Besides, in data set [1] (setting [2]), the pIC50 is less than 4.52.

Compound `CC(C)[C@H](NC(=O)OCc1ccccc1)C(=O)N[C@@H](C)C(=O)N[C@@H](CC(=O)O)C(=O)c1ncc(-c2ccccc2C(F)(F)F)o1` [Compound 144] gave a pKi at ICE (Example 6 table) of 6.49. Also, the pIC50 in data set [1] (setting [2]) was less than 4.70.

In the case of `CC(C)[C@H](NC(=O)OCc1ccccc1)C(=O)N[C@@H](C)C(=O)N[C@@H](CC(=O)O)C(=O)c1ncc(-c2ccccc2)o1` [Compound 145], the pKi at ICE (Example 6 table) is 6.47. Besides, the pIC50 in data set [1] (setting [2]) was 5.07.

With `CC(C)[C@H](NC(=O)OCc1ccccc1)C(=O)N[C@@H](C)C(=O)N[C@@H](CC(=O)O)C(=O)c1ncc(-c2c(Cl)cccc2Cl)o1` [Compound 146], on ICE (Example 6 table), the pKi was 6.80. Further, in data set [1] (setting [2]), the pIC50 is 5.42.

The compound `CC(C)[C@H](NC(=O)OCc1ccccc1)C(=O)N[C@@H](C)C(=O)N[C@@H](CC(=O)O)C(=O)c1ncc(-c2ccccc2Cl)o1` [Compound 147] had a pKi at ICE (Example 6 table) of 6.59. The pIC50 in data set [1] (setting [2]) was 5.07.

Take `CC(C)[C@H](NC(=O)OCc1ccccc1)C(=O)N[C@@H](C)C(=O)N[C@@H](CC(=O)O)C(=O)c1nccs1` [Compound 148]: the pKi at ICE (Example 6 table) was 5.20. In data set [1] (setting [2]), this compound had a negative logarithm of the IC50 (pIC50) of 4.52.

`CC(C)[C@H](NC(=O)OCc1ccccc1)C(=O)N[C@@H](C)C(=O)N[C@@H](CC(=O)O)C(=O)c1cocn1` [Compound 149] gave a pKi on ICE (Example 6 table) of 4.85. In data set [1] (setting [2]), this compound gave a negative-log IC50 (pIC50) of less than 4.52.

In turn, `CC(C)[C@H](NC(=O)OCc1ccccc1)C(=O)N[C@@H](C)C(=O)NC(CC(=O)O)C(=O)c1ncc(-c2ccccc2)[nH]1` (some centres unmarked) [Compound 150] had a negative logarithm of the Ki (pKi) at ICE (Example 6 table) of 5.00. In data set [1] (setting [2]), this compound gave a pIC50 of 4.52.

`CC(C)[C@H](NC(=O)OCc1ccccc1)C(=O)N[C@@H](C)C(=O)NC(CC(=O)O)C(=O)c1ncc[nH]1` (some centres unmarked) [Compound 151] had a pKi on ICE (Example 6 table) of 4.89. The pIC50 in data set [1] (setting [2]) was 4.52.

As for `CC(=O)N[C@@H](Cc1ccc(O)cc1)C(=O)N[C@H](C(=O)N[C@@H](C)C(=O)N[C@@H](CC(=O)O)C(=O)c1ncc(-c2c(Cl)cccc2Cl)s1)C(C)C` [Compound 154], at ICE (Example 6 table), the pKi was 7.38. The pIC50 in data set [1] (setting [2]) was 5.62.

With `CC(=O)N[C@@H](Cc1ccc(O)cc1)C(=O)N[C@H](C(=O)N1C[C@H](Oc2ccccc2)C[C@H]1C(=O)N[C@@H](CC(=O)O)C(=O)c1ncc(-c2c(Cl)cccc2Cl)o1)C(C)C` [Compound 156], at ICE (Example 6 table), the pKi was 9.00. In data set [1] (setting [2]), this compound showed a pIC50 of 5.57.

On to `COc1cccc2nc(C(=O)[C@H](CC(=O)O)NC(=O)[C@@H]3C[C@@H](Oc4ccccc4)CN3C(=O)[C@@H](NC(=O)[C@H](Cc3ccc(O)cc3)NC(C)=O)C(C)C)oc12` [Compound 159], for which the pKi at ICE (Example 6 table) was 8.77. Also, the pIC50 in data set [1] (setting [2]) is 5.10.

On ICE (Example 6 table), `CC(=O)N[C@H](C(=O)N1C[C@H](Oc2ccccc2)C[C@H]1C(=O)N[C@@H](CC(=O)O)C(=O)c1ncc(-c2c(Cl)cccc2Cl)o1)C(C)C` [Compound 160] gave a pKi of 6.84. This compound gave a pIC50 in data set [1] (setting [2]) of 5.65.

At ICE (Example 6 table), `CC(=O)N[C@@H](Cc1ccc(O)cc1)C(=O)N[C@H](C(=O)N[C@@H](C)C(=O)N[C@@H](CC(=O)O)C(=O)c1ncc(-c2c(Cl)cccc2Cl)o1)C(C)C` [Compound 163] gave a negative logarithm of the Ki (pKi) of 8.55. The compound further gave a pIC50 in data set [1] (setting [2]) of 5.92.

On to “(3S)t-Butyl N-(N-acetyl-(S)-tyrosinyl-(S)-valinyl-(S)-alaninyl)-3-amino-4-(2-(4-methoxybenzoxazolyl))-4-oxobutanoate [Compound 69b]”, for which the pKi at ICE (Example 4 table) was 7.30. The pIC50 in data set [1] (Example 4 table) is 6.13.
